Measurements from US8748491B2, “Dietary and pharmaceutical compositions containing tricyclic diterpenes and their derivatives and their uses” (priority 2006, dated 2014).
Marks after values point to notes of the source that are not given here.

Experiments:
[1] = target: T1, human serotonin re-uptake transporter (hSERT) (Homo sapiens, UniProt P31645); experiment: Inhibition of tritiated serotonin uptake into transfected HEK-293 cells; assay type: cell-based; conditions: HEK-293 cells expressing hSERT; 20 nM [3H] serotonin, 40 min, 37° C.; mean ± s.e.m.
T1 construct: host or cells: HEK-293
Description: HEK-293 cells stably expressing the human serotonin re-uptake transporter (hSERT) were obtained from R. Blakely, Vanderbilt University, USA. The cells were routinely grown in Dulbecco's Modified Eagle's Medium (Bioconcept) containing 10% fetal calf serum, penicillin, streptomycin, L-glutamine and the antibiotic G418 and passaged by trypsinisation. On the day of assay, cells from 80% confluent flasks were harvested by gentle washing with warm phosphate buffered saline (PBS). […] Serotonin uptake into the cells was determined by addition of radio-labelled [^3H] serotonin (GE Healthcare) at a concentration of 20 nM, and incubation for 40 minutes at 37° C. with gentle shaking. At the end of this time unincorporated label was removed by filtration though Unifilter 96 GF/B plates (Perkin Elmer) using a Tomtec Mach III M cell harvester. The incorporated serotonin retained on the plates was quantified by liquid scintillation counting using Microscint-40/Topcount (Perkin Elmer).

mouse [2] = experiment: Marble burying test; assay type: in vivo; conditions: for NUMBER OF MARBLES COVERED BY SAWDUST % change from control / NUMBER OF MARBLES COVERED BY SAWDUST mean ± s.e.m.: mouse
Method: The method applied here follows that described by Broekkamp et al., supra. Mice (n=15 per treatment group) were individually placed in transparent plastic cages (33×21×18 cm) with 5 cm of sawdust on the floor and 25 marbles (diameter 1 cm) grouped in the centre of the cage. A second, up-turned, cage served as a lid. The number of marbles covered by sawdust (by at least two-thirds) was counted at the end of the 30-minute test period. Tests were performed by investigators blind to the drug treatment protocol.
Prior to testing, all test cages and marbles were “impregnated” by leaving 10 naive mice in each cage for 15 minutes. […]
Data were analysed by comparing treated groups with vehicle control using unpaired Student's t-tests.

[3] = target: T2, Monoamine oxidase A (MAO-A) (Homo sapiens, UniProt P21397); experiment: Monoamine oxidase A inhibition (p-tyramine substrate, H2O2/vanillic acid/HRP readout); assay type: biochemical; conditions: p-tyramine 0.5 mM; mean ± s.e.m.; read-out: IC50 [μM] for Inhibition of MAO-A
T2 sequence (P21397 1-527): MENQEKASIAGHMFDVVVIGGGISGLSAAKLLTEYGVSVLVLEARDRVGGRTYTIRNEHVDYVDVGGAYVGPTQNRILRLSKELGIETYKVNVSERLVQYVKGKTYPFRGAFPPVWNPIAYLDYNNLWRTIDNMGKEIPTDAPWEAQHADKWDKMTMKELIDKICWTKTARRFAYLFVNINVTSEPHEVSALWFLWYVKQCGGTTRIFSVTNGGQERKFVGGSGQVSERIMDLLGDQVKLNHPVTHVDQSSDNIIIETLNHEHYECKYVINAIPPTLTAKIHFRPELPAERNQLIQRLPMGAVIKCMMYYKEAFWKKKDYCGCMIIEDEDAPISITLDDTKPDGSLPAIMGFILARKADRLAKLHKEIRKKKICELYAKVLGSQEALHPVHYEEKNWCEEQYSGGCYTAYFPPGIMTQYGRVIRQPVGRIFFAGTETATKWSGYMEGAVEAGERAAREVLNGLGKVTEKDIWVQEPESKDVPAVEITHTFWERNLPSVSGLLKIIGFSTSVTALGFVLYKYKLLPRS
Method: (§1) The organic amines p-tyramine or benzylamine were used as substrates for the Monoamine oxidase A (MAO-A) and B (MAO-B) enzymes respectively. The H2O2 produced by this reaction was quantified by reaction with vanillic acid, catalysed by horse radish peroxidase (HRP).
(§2) The reactions were carried out in polystyrene microtitre plates. The MAO enzymes (final concentration 2 U/ml) were mixed with either p-tyramine (Sigma, final concentration 0.5 mM) or benzylamine (Sigma, final concentration 0.5 mM) as appropriate and the chromogenic solution (containing vanillic acid (Fluka), 4-aminoantipyrine (Fluka) and horse radish peroxidase (Sigma), final concentrations 0.25 mM, 0.125 mM and 1 U/ml respectively) in 0.2 M potassium phosphate buffer, pH 7.6. The reactions were followed in a microtitre plate absorbance reader e.g. Spectramax M5 (Molecular Devices Corporation). Absorbance readings at 495 nm were taken every 15 seconds for 40 minutes and the initial reaction velocities calculated by linear regression using SOFTmaxPro (Molecular Devices Corporation).
(§3) The effect of tricyclic diterpenes and their derivatives according to formula I on the monoamine oxidase enzymes was determined by their inclusion in the assay at a range of concentrations between 0.03 and 100 μM for 10 minutes prior to and during the incubation with substrate. To determine the effect of the compounds on the HRP catalyzed portion of the reaction, the MAO enzyme was replaced by H2O2 (Molecular Probes, final concentration 0.2 mM). The reactions containing MAO-A and MAO-B were both inhibited by tricyclic diterpenes and their derivatives according to formula I in a dose-dependent manner, whilst the control reaction, was unaffected. The measured IC50 values for inhibition of monoamine oxidase activity by carnosic acid, carnosic acid-12-methyl ether and 20-deoxo-carnosol are shown in Table 3.

[4] = target: T3, Monoamine oxidase B (MAO-B) (Homo sapiens, UniProt P27338); experiment: Monoamine oxidase B inhibition (benzylamine substrate, H2O2/vanillic acid/HRP readout); assay type: biochemical; conditions: benzylamine 0.5 mM; mean ± s.e.m.; read-out: IC50 [μM] for Inhibition of MAO-B
T3 sequence (P27338 1-520): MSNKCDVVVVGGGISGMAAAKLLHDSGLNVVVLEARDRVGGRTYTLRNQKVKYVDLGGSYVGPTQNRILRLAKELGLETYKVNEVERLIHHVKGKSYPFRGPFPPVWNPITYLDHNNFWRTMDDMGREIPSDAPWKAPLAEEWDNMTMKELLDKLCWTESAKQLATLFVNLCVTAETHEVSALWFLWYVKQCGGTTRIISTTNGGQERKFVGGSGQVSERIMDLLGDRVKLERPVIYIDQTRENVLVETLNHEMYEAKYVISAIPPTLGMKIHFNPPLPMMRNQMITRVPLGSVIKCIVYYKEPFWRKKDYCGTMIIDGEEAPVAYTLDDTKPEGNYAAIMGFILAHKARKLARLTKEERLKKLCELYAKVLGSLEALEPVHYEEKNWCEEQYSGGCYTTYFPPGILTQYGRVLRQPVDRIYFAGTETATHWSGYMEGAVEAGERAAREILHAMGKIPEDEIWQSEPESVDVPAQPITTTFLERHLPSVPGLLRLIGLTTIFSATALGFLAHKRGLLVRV
Method: as §1, §2, §3

mouse [5] = experiment: Light dark box test; assay type: in vivo; conditions: mouse, 32 mg/kg p.o. −1 h
Description: The method, which detects anxiolytic activity, follows that described by Crawley, 1981 Pharmacol. Biochem. Behav., 15:695-699. Anxiolytics increase the time spent in the light compartment.
Animals were placed into the light compartment of a 2-compartment box with one half light and open (25×27×27 cm) and the other half dark and closed (20×27×27 cm). The time spent in each compartment as well as the number of times the animal crosses from one side to the other is scored during a 3-minute test. 15 mice were studied per group. The test was performed blind.
Carnosic acid was evaluated at 3 doses (100, 200, 400 mg/kg BW), administered by oral gavage (p.o.) 24, 5 and 1 hour before the test, and compared with a vehicle control group (corn oil). Carnosic acid was dissolved in corn oil (“vehicle”). Clobazam (32 mg/kg p.o.), administered 1 hour before the test, was used as reference substance. Mice in this group received additional administrations of vehicle at 24 and 5 hours before the test in order to maintain experimental blinding.

mouse [6] = experiment: Porsolt's forced swim test (FST); assay type: in vivo
Method: Mice were individually placed in cylinders (24.5 cm height, 19.5 cm internal diameter) containing 13.5 cm depth of water (22±0.5° C.) for a period of 6 minutes, behavioural parameters of interest being analysed during the final 4 minutes of the test, since the first 2 minutes include vigorous activity. Six cylinders were placed in a Perspex box, thus enabling six mice to be tested simultaneously.
Automatic monitoring of swim tests was enabled through the use of VideoMot2 software (TSE Technical and Scientific Equipment GmbH, Bad Homburg, Germany). All to experiments were observed via a black and white CCD camera. The rest:locomotion and stop:start thresholds, as determined by setting parameters in the software programme, determine the number of pixels which must change for a movement to be registered, enabling the software to determine whether a mouse is swimming or resting. The parameters which are automatically recorded include: rest time and locomotion time (ms), % rest and % locomotion, distance travelled (cm), speed of travel (cm/s) and number of stops.
Data were analysed by comparing treated groups with the untreated control group using Fisher's PLSD (StatView, SAS Institute Inc., Cary, N.C., USA)

[7] = Table 6, 100 mg/kg i.p. −30 min
[8] = Table 6, 200 mg/kg i.p. −30 min

T1 sequence (P31645 whole entry): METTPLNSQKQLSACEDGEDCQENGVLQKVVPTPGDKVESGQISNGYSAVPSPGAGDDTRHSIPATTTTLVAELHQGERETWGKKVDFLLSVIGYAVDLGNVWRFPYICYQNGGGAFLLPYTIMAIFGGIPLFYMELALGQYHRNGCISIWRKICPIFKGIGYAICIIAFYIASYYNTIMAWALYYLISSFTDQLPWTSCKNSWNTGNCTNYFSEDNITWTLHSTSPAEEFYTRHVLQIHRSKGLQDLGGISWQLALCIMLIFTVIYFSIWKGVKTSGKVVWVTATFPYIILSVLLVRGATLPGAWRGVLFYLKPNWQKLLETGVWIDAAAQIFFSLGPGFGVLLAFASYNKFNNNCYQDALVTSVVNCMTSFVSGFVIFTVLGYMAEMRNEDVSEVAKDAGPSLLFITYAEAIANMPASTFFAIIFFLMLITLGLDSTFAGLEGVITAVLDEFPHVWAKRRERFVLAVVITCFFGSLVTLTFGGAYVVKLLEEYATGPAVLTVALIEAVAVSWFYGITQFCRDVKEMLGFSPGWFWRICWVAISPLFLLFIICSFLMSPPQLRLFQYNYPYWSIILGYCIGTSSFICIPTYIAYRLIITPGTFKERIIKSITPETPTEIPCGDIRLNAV

## 16-hydroxytotarol
[1]
  IC50: 7.4 µM

## CC(C)c1ccc2c(c1)C(=O)C[C@H]1[C@](C)(C(=O)O)CCC[C@]21C [7-Oxocallitrisic Acid, 7-oxocallitrisic acid]
[1]
  IC50: 32.9 ± 8.6 µM

## CC(C)c1cc2c(c(O)c1O)[C@@]13CCCC(C)(C)[C@@H]1C[C@@H]2OC3 [20-Deoxo-carnosol, 20-deoxo-carnosol]
Mouse [2]; Table 6, 30 mg/kg i.p. −30 min
  NUMBER OF MARBLES COVERED BY SAWDUST % change from control: −24%
  NUMBER OF MARBLES COVERED BY SAWDUST mean ± s.e.m.: 16.7 ± 2.2
Mouse [2]; [7]
  NUMBER OF MARBLES COVERED BY SAWDUST % change from control: −56%
  NUMBER OF MARBLES COVERED BY SAWDUST mean ± s.e.m.: 9.7 ± 2.3
Mouse [2]; [8]
  NUMBER OF MARBLES COVERED BY SAWDUST % change from control: −60%
  NUMBER OF MARBLES COVERED BY SAWDUST mean ± s.e.m.: 8.8 ± 2.4
Mouse [2]; mouse, 30, 100 and 200 mg/kg i.p.
  marble burying behaviour (in words): dose-dependently and significantly reduced marble burying behaviour
[3]
  IC50: 4.3 ± 1.1 µM
[4]
  IC50: 27 ± 7.3 µM
[1]
  IC50: 4.2 ± 0.2 µM

## COc1c(C(C)C)cc2c(c1O)C1(C(=O)O)CCCC(C)(C)C1CC2 (stereo not drawn) [Carnosic acid-12-methylether, carnosic acid 12-methyl ether]
[3]
  IC50: 40.6 ± 0.25 µM
[4]
  IC50: 83.1 ± 6.8 µM
[1]
  IC50: 22 ± 4.9 µM

## CN1C(=O)CC(=O)N(c2ccccc2)c2cc(Cl)ccc21 [Clobazam, clobazam, reference compound]
Mouse [5]
  NUMBER OF CROSSINGS % change from control: +56%
  TIME SPENT IN THE LIGHT COMPARTMENT % change from control: +43%

## CNCCC(Oc1ccc(C(F)(F)F)cc1)c1ccccc1 (stereo not drawn) [Fluoxetine, fluoxetine, reference compound]
Mouse [2]; Table 5, 32 mg/kg i.p. −30 min
  NUMBER OF MARBLES COVERED BY SAWDUST % change from control: −100%
  NUMBER OF MARBLES COVERED BY SAWDUST mean ± s.e.m.: 0.0 ± 0.0
Mouse [2]; Table 6, 32 mg/kg i.p. −30 min
  NUMBER OF MARBLES COVERED BY SAWDUST % change from control: −100%
  NUMBER OF MARBLES COVERED BY SAWDUST mean ± s.e.m.: 0.0***

## CC(C)c1c(O)ccc2c1CC[C@H]1C(C)(C)CCC[C@]21C [Totarol, totarol]
[1]
  IC50: 7.5 ± 2.6 µM

## COC(=O)C1(C)CCCC2(C)c3ccc(O)c(C(C)C)c3CCC12 (stereo not drawn) [Totarol-19-carboxylic acid methyl ester, totarol-19-carboxylic acid methyl ester]
[1]
  IC50: 7.2 µM

## COc1ccc(C(CN(C)C)C2(O)CCCCC2)cc1 (stereo not drawn) [VENLAFAXINE, venlafaxine, reference compound]
Mouse [2]; Table 6, 16 mg/kg i.p. −30 min
  NUMBER OF MARBLES COVERED BY SAWDUST % change from control: −60%
  NUMBER OF MARBLES COVERED BY SAWDUST mean ± s.e.m.: 8.7 ± 2.2

## CN(C)CCCN1c2ccccc2CCc2ccccc21 [imipramine, reference compound]
Mouse [6]; 32 mg/kg i.p., −30 min
  Duration of immobility (% change from control): −61%
Mouse [6]; 32 mg/kg p.o., −24, −5, −1 h
  Duration of immobility (% change from control): −56%
